Where “and” joins values, the source holds several entries; their conditions need not be identical. Equal values may be shown once.
Key:
NF-κB activation = test: NF-κB firefly luciferase reporter assay, TNF-α-stimulated stably transfected HEK293 cells; type: cell-based, human; conditions: TNF-α 10 ng/ml 3 h, vehicle = 100, single experiments; for NF-κB luciferase activity normalized to vehicle: Fig 2C, derivatives at 100 μM; for NF-κB luciferase activity normalized to untreated stimulated control: Fig 2A, 100 μM, 30 min pretreatment
Description: To determine whether the small molecules identified by the in silico screening inhibit NF-κB activation, a HEK293 cell line stably expressing a luciferase reporter driven by a synthetic, NF-κB-dependent promoter was utilized. To induce NF-κB activation, cells were treated with 10 ng/mL of TNF-α and harvested 3 h post treatment for analysis of luciferase activity. […] To determine whether ZINC12909780 inhibits NF-κB in a dose-dependent manner, concentrations were tested at 0, 6.25, 25, 50, and 100 μM.
Luciferase activity was normalized to untreated stimulated control cells. […] Cell viability was calculated by normalizing to untreated cells. […] Underlying data can be found in S1 Data.
HEK293 cells stably transfected with luciferase reporter plasmid driven by NF-κB were seeded in 96-well plates in triplicate and pretreated with DMSO or varying small molecules at indicated concentration for 30 min, followed by the stimulation of 10 ng/ml of TNF-α for 3 h. Cells were washed with PBS once and harvested in Passive Lysis Buffer (Promega, Madison, WI). Luciferase assay (Promega) was performed by using a luminometer according to the manufacturer’s instructions.

HEK293 cells = conditions: Fig 2D; 100 μM, 24 h
Description: (A) HEK293 cells stably expressing NF-κB luciferase reporter were pretreated with indicated small molecules at 100 μM for 30 min, followed by stimulation with TNF-α (10 ng/ml) for 3 h. Luciferase activity was normalized to untreated stimulated control cells. […] (B) The dose-dependent response of ZINC12909780 was tested by NF-κB luciferase assay in HEK293 cells. Three independent experiments were performed, and data shown represent mean +/− SD. […] (D) HEK293 cells were cultured in the presence of 100 μM of indicated derivatives for 24 h, and cell survival was determined by MTT assay. Cell viability was calculated by normalizing to untreated cells. (E) Dose-dependent inhibitory effects were determined for ZINC5 at 0, 25, 50, and 100 μM by using NF-κB luciferase assay. (F) HEK293 were cultivated in the presence of ZINC5 at listed concentrations for 24 h, and cell survival was assessed by MTT assay. Data represent the mean +/− SD from 4–5 independent experiments. *P < 0.05; **P < 0.01; ***P < 0.001. Underlying data can be found in S1 Data. HEK293, human embryonic kidney 293 cells; MTT, 3-(4,5-dimethylthiazol-2-yl)-2,5-dephenyltetrazolium bromide colormetric assay for assessing cell metabolic activity; NF-κB, nuclear factor κB; TNF-α; tumor necrosis factor α; SD, standard deviation.
HEK293 cells were grown in a 96-well plate at 3 × 10^4 cells/well in triplicate and treated with DMSO or listed small molecules at indicated concentrations for 24 h. Cell survival was determined by adding 20 μl of 5 mg/ml MTT (thiazolyl blue tetrazolium bromide) to each well, followed by incubation in 37 °C for 3 h. Media were removed, and purple formazan was dissolved in 100 uL of DMSO. Absorbance was measured at 590 nm on a microplate reader (PerkinElmer, Waltham, MA). Cell viability was calculated by normalizing values to untreated controls.

NF-κB target genes = test: qRT-PCR of NF-κB target genes in LPS-stimulated Raw 264.7 cells; type: cell-based, mouse; conditions: Fig 4C, LPS 1 μg/ml 2 h, IKKi VII 2 μM, 8K-NBD 200 μM, SR compounds 50 μM, relative to no LPS
IL-6 production = test: Mouse IL-6 ELISA of supernatant of LPS-stimulated Raw 264.7 cells; type: cell-based; conditions: Fig 4D; IKKi VII 2 μM; LPS 1 μg/ml 24 h
Description: Fig 4 Modified lead NBD mimetics inhibit TNF-α- and LPS-induced NF-κB activation by disrupting the association between NEMO and IKKβ. (A) Structures of top NBD mimetics. (B) Measurement of NF-κB activation in response to TNF-α by using Dual-luciferase reporter assays. HEK293 cells cotransfected with NF-κB luciferase reporter and SV40-Renilla plasmids were pretreated with DMSO or listed small molecules at 0, 25, 50, 100, and 150 μM for 30 min, followed by the induction of TNF-α for 3 h. Data shown are representative of 2–3 independent experiments. […] Raw 264.7 cells were pretreated with indicated drugs for 30 min and then stimulated with 1 μg/ml of LPS for 2 h. Cells were then harvested for RNA extraction and qRT-PCR analysis. Drug concentrations used are as follows: IKKi VII (2 μM), 8K-NBD peptide (200 μM), SR12343 (50 μM), SR12460 (50 μM), SR12454 (50 μM), and SR11481 (50 μM). Data are representative of 2 independent experiments. […] Raw 264.7 cells pretreated with DMSO or drugs at indicated concentrations were exposed to 1 μg/ml of LPS for 24 h, and supernatant was collected for ELISA analysis of mouse IL-6. *P < 0.05; **P < 0.01. Underlying data can be found in S1 Data. HEK293, human embryonic kidney 293 cells; IKK, IκB kinase; IL-6, interleukin 6; LPS, lipopolysaccharide; NBD, NEMO-binding domain; n.d., nondetectable; NEMO, NF-κB essential modulator; NF-κB, nuclear factor κB; qRT-PCR, […] real-time polymerase chain reaction; TNF-α; tumor necrosis factor α. TEXT PRINTED IN THE PICTURE: (D) ikki VII: mIL-6 (ng/ml): n.d. | (D) SR12460: mIL-6 (ng/ml): n.d. (50μM) | (D) SR12454: mIL-6 (ng/ml): n.d. (50μM) DOUBTS OF THE COPYIST ABOUT THIS PICTURE: Panel D: the only printed results are the three "n.d." labels. They stand in place of bars and are assigned to ikki VII, SR12460 50μM and SR12454 50μM by their position on the axis. All other results are shown only as bars, with no printed numbers.
To confirm the qRT-PCR results, the levels of IL-6 production in Raw 264.7 cells activated by LPS were analyzed by ELISA.
Raw 264.7 cells were grown in 96-well plates and pretreated with vehicle, IKKi VII (2 μM), and small molecules (at indicated concentration) for 1 h, followed by the stimulation with 1 μg/ml of LPS. Supernatant was collected 24 h later for ELISA analysis. IL-6 concentration was measured using a mouse IL-6 ELISA kit (BD) according to the manufacturer’s instructions.

| SMILES | NF-κB luciferase activity normalized to vehicle (NF-κB activation) | Cell viability normalized to untreated cells (MTT) (HEK293 cells) | other results |
| --- | --- | --- | --- |
| O=C(COC(=O)Cc1ccccc1)Nc1ncc(Cl)cc1Cl [ZINC9] | 67.06 and 59.84 and 88.3 and 70.04 and 84.32 | 92 and 86 and 88 | NF-κB luciferase activity normalized to vehicle (NF-κB activation; listed as Zinc9): lowered NF-κB activity robustly |
| O=C(COC(=O)c1ccc2ccccc2c1)Nc1ncc(C(F)(F)F)cc1Cl [ZINC4] | 99.2 and 99.51 and 98.62 and 84.84 and 111.34 | 62 and 80 and 74 and 70 |  |
| O=C(c1ccc(Nc2nccc(-c3cc4ccccc4s3)n2)cc1)N1CCC(N2CCCC2)CC1 [IKKi VII, reference compound] | lowered NF-κB activity robustly |  | iNOS mRNA expression (qRT-PCR) (NF-κB target genes): failed to down-regulate iNOS expression; COX2 mRNA expression (qRT-PCR) (NF-κB target genes; listed as ikki VII): 169.382 and 169.611 and 190.029; IL6 mRNA expression (qRT-PCR) (NF-κB target genes; listed as ikki VII): 61.5373 and 59.8482 and 47.3662; IL-1b mRNA expression (qRT-PCR) (NF-κB target genes; listed as ikki VII): 67.7567 and 72.7507 and 75.5037; TNFa mRNA expression (qRT-PCR) (NF-κB target genes; listed as ikki VII): 61.1388 and 68.3653 and 68.6282; iNOS mRNA expression (qRT-PCR) (NF-κB target genes; listed as ikki VII): 24.1042 and 20.2843 and 19.9052; ikBa mRNA expression (qRT-PCR) (NF-κB target genes; listed as ikki VII): 8.329 and 8.125 and 9.136; mIL-6 in supernatant (ELISA) (IL-6 production): 0 ng/mL |
| O=C(NN=C1CCN(Cc2ccccc2)CC1)[C@H]1C[C@@H]1c1ccccc1 [ZINC05682974] |  |  | NF-κB luciferase activity normalized to untreated stimulated control (NF-κB activation): remained unchanged; NF-κB luciferase activity normalized to untreated stimulated control (NF-κB activation; listed as ZINC05682947): 105.454 and 97.4199 |
| O=C(COC(=O)c1ccc(Cl)nc1)Nc1ncc(Cl)cc1Cl [ZINC11] | 90.11 and 74.66 and 111.57 and 92.82 and 119.55 | 77 and 62 and 78 and 72 |  |
| O=C(COC(=O)c1cccnc1Cl)Nc1ncc(Cl)cc1Cl [ZINC6] | 114.53 and 96.57 and 113.68 and 101.67 and 104.3 | 90 and 71 and 78 and 92 |  |
| O=C(COC(=O)c1c2ccccc2cc2ccccc12)Nc1ncc(C(F)(F)F)cc1Cl [ZINC7] | 99.14 and 98.45 and 107.93 and 94.89 | 73 and 51 and 70 and 69 |  |
| O=C(COC(=O)c1ccccn1)Nc1ncc(C(F)(F)F)cc1Cl [ZINC10] | 108.77 and 101.36 and 116.46 and 94.96 and 126.1 | 89 and 65 and 84 and 79 |  |
| NC(=O)COC(=O)c1cccnc1Nc1ccccc1F [ZINC13] | 100.33 and 91.05 and 121.31 and 95.5 and 122.97 | 82 and 81 and 84 and 90 |  |
| O=C(COC(=O)c1cccc2ccccc12)Nc1ncc(C(F)(F)F)cc1Cl [ZINC8] | 56.26 and 53.09 and 63.7 and 43.79 and 59.31 | 51 and 82 and 57 and 61 | NF-κB luciferase activity normalized to vehicle (NF-κB activation; listed as Zinc8): lowered NF-κB activity robustly |
| O=C(COC(=O)c1cccc(F)c1)Nc1ccc(Cl)cn1 [ZINC14] | 108.83 and 98.08 and 117.73 and 100.75 and 124.98 | 60 and 64 and 68 and 84 |  |
| O=C(COC(=O)c1ccc(F)cc1)Nc1ccc(Cl)cn1 [ZINC15] | 103.61 and 97.73 and 103.85 and 95.58 and 115.08 | 58 and 77 and 86 |  |
| O=C(COC(=O)c1nc(Cl)ccc1Cl)Nc1ccc(Cl)cn1 [ZINC3] | 111.63 and 103.8 and 115.96 and 89.11 and 115.8 | 97 and 81 and 75 |  |
| O=C(COC(=O)c1ncc(Cl)c(Cl)c1Cl)Nc1ccc(Cl)cn1 [ZINC1] | lowered NF-κB activity robustly |  |  |
| O=C(COC(=O)c1ccc(F)cc1F)Nc1ccc(Cl)cn1 [ZINC12] | 95.61 and 79.06 and 109.79 and 80.64 and 92.59 | 94 and 85 and 87 |  |
| O=C(COC(=O)c1nc(Cl)ccc1Cl)Nc1ncc(Cl)cc1Cl [ZINC2] | 87.9 and 94.94 and 107.72 and 95.11 and 110.04 |  |  |
